These results are taken from patent US20050197350A1, “Novel quinoline, tetrahydroquinazoline, and pyrimidine derivatives and methods of treatment related to the use thereof” (TAISHO PHARMACEUTICAL CO., LTD., priority 2003, published 2005).

The test system of the first assay is MCH receptors. The assay can be described thus: MCH receptor activity class (method not given). As to conditions: MCH receptor activity class 1-3 (percent of control at 10^-7 M or IC50).
With `CN(C)c1ccnc(N[C@H]2CC[C@@H](CNC(=O)Nc3c(Br)cc(F)cc3Br)CC2)n1` [compound 2444, N-(2,6-dibromo-4-fluorophenyl)-N′-[(cis-4-{[4-(dimethylamino)pyrimidin-2-yl]amino}cyclohexyl)methyl]urea], the class is reported as 1 (Class 1: The value of percent of control at 10^−7 M was less than 40% or the value of IC50 was less than 50 nM.). In the case of `COC(=O)c1scc(C)c1NC(=S)N[C@H]1CC[C@@H](Nc2cc(N(C)C)c3ccccc3n2)CC1` [compound 2311], the class is 2 (Class 2: The value of percent of control at 10^−7 M was from 40% to 60% or the value of IC′50 was from 50 nM to 200 nM.).

In the case of `Cc1cccc(Cl)c1NC(=O)NC[C@H]1CC[C@@H](Nc2cc(N(C)C)c3ccccc3n2)CC1` [compound 2374], the class is given as 3 (Class 3 The value of percent of control at 10^−7 M was more than 60% or the value of IC50 was more than 200 nM.). Consider `CCOC(=O)c1cccc(NC(=S)N[C@H]2CC[C@@H](Nc3nccc(N(C)C)n3)CC2)c1` [compound 2338], for which the class is 3 (Class 3 The value of percent of control at 10^−7 M was more than 60% or the value of IC50 was more than 200 nM.).

Staying with this assay, now noted: MCH receptor; class by percent of control at 10^-7 M or IC50.
Take `CN(C)c1nc(N[C@H]2CC[C@@H](NC(=S)NCC3CC3)CC2)nc2c1CCCC2` [compound 2068]: the class is given as 3 (Class 3 The value of percent of control at 10^−7 M was more than 60% or the value of IC50 was more than 200 nM.). Turning to `CN(C)c1nc(N[C@H]2CC[C@@H](NC(=O)Nc3ccc4c(c3)Cc3ccccc3-4)CC2)nc2c1CCCC2` [compound 1904], the class was 3 (Class 3 The value of percent of control at 10^−7 M was more than 60% or the value of IC50 was more than 200 nM.).

Staying with this assay, now noted: activity class 1-3: percent of control at 10^-7 M or IC50.
On to `COCCOC(=O)NC[C@H]1CC[C@@H](Nc2nccc(N(C)C)n2)CC1` [compound 1645], for which the class was 3 (Class 3 The value of percent of control at 10^−7 M was more than 60% or the value of IC50 was more than 200 nM.). Regarding `CN(C)c1cc(N[C@H]2CC[C@@H](CNC(=O)OCC(Cl)(Cl)Cl)CC2)nc2ccccc12` [compound 1578], the class is 3 (Class 3 The value of percent of control at 10^−7 M was more than 60% or the value of IC50 was more than 200 nM.). For the molecule `C[C@@H](CNC[C@H]1CC[C@@H](Nc2nccc(N(C)C)n2)CC1)N(Cc1ccccc1)Cc1ccccc1` [compound 1538], the class is listed as 3 (Class 3 The value of percent of control at 10^−7 M was more than 60% or the value of IC50 was more than 200 nM.). Turning to `CN(C)c1ccnc(N[C@H]2CC[C@@H](CNC(=O)Oc3ccc4ccccc4c3)CC2)n1` [compound 1649], the class is 3 (Class 3 The value of percent of control at 10^−7 M was more than 60% or the value of IC50 was more than 200 nM.).

The same assay, now with this note: activity class per percent of control at 10^-7 M or IC50.
On to `CN(C)c1nc(N[C@H]2CC[C@@H](CNC(=O)c3ccc(I)o3)CC2)nc2c1CCCC2` [compound 1068], for which the class is reported as 3 (Class 3 The value of percent of control at 10^−7 M was more than 60% or the value of IC50 was more than 200 nM.). For the molecule `CN(C)c1nc(N[C@H]2CC[C@@H](CNC(=O)Cc3ccc(F)cc3Cl)CC2)nc2c1CCCC2` [compound 1063], the class is recorded as 3 (Class 3 The value of percent of control at 10^−7 M was more than 60% or the value of IC50 was more than 200 nM.).

The assay is the same for the next values; noted with them: class 1-3 by percent of control at 10^-7 M or IC50.
Regarding `CN(C)c1nc(N[C@H]2CC[C@@H](NC(=O)c3cc(F)cc(F)c3)CC2)nc2c1CCCC2` [compound 470], the class is listed as 1 (Class 1: The value of percent of control at 10^−7 M was less than 40% or the value of IC50 was less than 50 nM.). `CN(C)c1nc(N[C@H]2CC[C@@H](NC(=O)C(c3ccccc3)c3ccccc3)CC2)nc2c1CCCC2` [compound 468]: the class is listed as 1 (Class 1: The value of percent of control at 10^−7 M was less than 40% or the value of IC50 was less than 50 nM.).

Still in this assay, the particulars now being: class by percent of control at 10^-7 M or IC50.
On to `COc1ccccc1NC(=O)N[C@H]1CC[C@@H](Nc2nc3c(c(N(C)C)n2)CCCC3)CC1` [compound 1833], for which the class was 3 (Class 3 The value of percent of control at 10^−7 M was more than 60% or the value of IC50 was more than 200 nM.).

On to `CN(C)c1ccnc(N[C@H]2CC[C@@H](CNC(=O)Cc3c(Cl)ccc(Cl)c3Cl)CC2)n1` [compound 926, N-[(cis-4-{[4-(dimethylamino)pyrimidin-2-yl]amino}cyclohexyl)methyl]-2-(2,3,6-trichlorophenyl)acetamide], for which the class is recorded as 1 (Class 1: The value of percent of control at 10^−7 M was less than 40% or the value of IC50 was less than 50 nM.). The same measure, in the same setting: then `C[C@@H](c1ccccc1)N(C(=O)c1ccccc1C(=O)N[C@H]1CC[C@@H](Nc2nccc(N(C)C)n2)CC1)[C@@H](C)c1ccccc1` [compound 879, N′-(cis-4-{[4-(dimethylamino)pyrimidin-2-yl]amino}cyclohexyl)-N,N-bis[(1S)-1-phenylethyl]phthalamide], with 1 (Class 1: The value of percent of control at 10^−7 M was less than 40% or the value of IC50 was less than 50 nM.); and `Cc1c(C)c(C)c(CNC2CCC(Nc3cc(N(C)C)c4ccccc4n3)CC2)c(C)c1C` (stereo not drawn) [compound 1451], with 3 (Class 3 The value of percent of control at 10^−7 M was more than 60% or the value of IC50 was more than 200 nM.).

With `Cc1ccc(S(=O)(=O)N[C@H](CN[C@H]2CC[C@@H](Nc3nc4c(c(N(C)C)n3)CCCC4)CC2)Cc2ccccc2)cc1` [compound 1491], the class was 1 (Class 1: The value of percent of control at 10^−7 M was less than 40% or the value of IC50 was less than 50 nM.). For `CN(C)c1nc(N[C@H]2CC[C@@H](NC(=O)Nc3ccccc3F)CC2)nc2c1CCCC2` [compound 1828], the class is 3 (Class 3 The value of percent of control at 10^−7 M was more than 60% or the value of IC50 was more than 200 nM.).

For the molecule `CN(C)c1nc(N[C@H]2CC[C@@H](NC(=O)c3ccc(Br)o3)CC2)nc2c1CCCC2` [compound 970, 5-bromo-N-(cis-4-{[4-(dimethylamino)-5,6,7,8-tetrahydroquinazolin-2-yl]amino}cyclohexyl)-2-furamide], the class is listed as 1 (Class 1: The value of percent of control at 10^−7 M was less than 40% or the value of IC50 was less than 50 nM.). As to `CCc1cccc(C(C)C)c1NC(=O)N[C@H]1CC[C@@H](Nc2cc(N(C)C)c3ccccc3n2)CC1` [compound 2106, N-(cis-4-{[4-(dimethylamino)quinolin-2-yl]amino}cyclohexyl)-N′-(2-ethyl-6-isopropylphenyl)urea], the class is given as 2 (Class 2: The value of percent of control at 10^−7 M was from 40% to 60% or the value of IC′50 was from 50 nM to 200 nM.). On to `CCCCCCCOc1ccc(NC(=O)N[C@H]2CC[C@@H](Nc3nc4c(c(N(C)C)n3)CCCC4)CC2)cc1` [compound 1891], for which the class is given as 3 (Class 3 The value of percent of control at 10^−7 M was more than 60% or the value of IC50 was more than 200 nM.).

For `CN(C)c1ccnc(N[C@H]2CC[C@@H](CNC(=O)c3ccc(Cl)c([N+](=O)[O-])c3)CC2)n1` [compound 372], the class is 2 (Class 2: The value of percent of control at 10^−7 M was from 40% to 60% or the value of IC′50 was from 50 nM to 200 nM.). In the case of `CCc1cccc(C)c1NC(=O)N[C@H]1CC[C@@H](Nc2cc(N(C)C)c3ccccc3n2)CC1` [compound 2092, N-(cis-4-{[4-(dimethylamino)quinolin-2-yl]amino}cyclohexyl)-N′-(2-ethyl-6-methylphenyl)urea], the class is listed as 2 (Class 2: The value of percent of control at 10^−7 M was from 40% to 60% or the value of IC′50 was from 50 nM to 200 nM.).

As to `CN(C)c1nc(N[C@H]2CC[C@@H](NC(=S)Nc3ccc(Br)cc3Cl)CC2)nc2c1CCCC2` [compound 1751], the class is listed as 1 (Class 1: The value of percent of control at 10^−7 M was less than 40% or the value of IC50 was less than 50 nM.). Take `CN(C)c1nc(N[C@H]2CC[C@@H](CNC(=O)c3ccc(-c4ccccc4)cc3)CC2)nc2c1CCCC2` [compound 654]: the class is 3 (Class 3 The value of percent of control at 10^−7 M was more than 60% or the value of IC50 was more than 200 nM.).

The assay is the same for the next values; noted with them: class by percent of control at 10^−7 M or IC50.
Consider `CCCc1ccc(NC(=O)[C@H]2CC[C@@H](Nc3ncc(C)c(N(C)C)n3)CC2)cc1` [compound 2785], for which the class was 2 (Class 2: The value of percent of control at 10^−7 M was from 40% to 60% or the value of IC′50 was from 50 nM to 200 nM.). For the molecule `Cc1cc(C(=O)N[C@H]2CC[C@@H](Nc3ncc(C)c(N(C)C)n3)CC2)ccc1Br` [compound 2920, 4-bromo-N-(cis-4-{[4-(dimethylamino)-5-methylpyrimidin-2-yl]amino}cyclohexyl)-3-methylbenzamide], the class was 1 (Class 1: The value of percent of control at 10^−7 M was less than 40% or the value of IC50 was less than 50 nM.).

In the case of `COc1cc(OC)cc(C(=O)N[C@H]2CC[C@@H](Nc3nc(C)c(C)c(N(C)C)n3)CC2)c1` [compound 2840, N-(cis-4-{[4-(dimethylamino)-5,6-dimethylpyrimidin-2-yl]amino}cyclohexyl)-3,5-dimethoxybenzamide], the class is 1 (Class 1: The value of percent of control at 10^−7 M was less than 40% or the value of IC50 was less than 50 nM.). Regarding `Cc1cnc(NC[C@H]2CC[C@@H](NC(=O)c3cc(C(F)(F)F)cc(C(F)(F)F)c3)CC2)nc1N(C)C` [compound 2731, N-[cis-4-({[4-(dimethylamino)-5-methylpyrimidin-2-yl]amino}methyl)cyclohexyl]-3,5-bis(trifluoromethyl)benzamide], the class is on record as 2 (Class 2: The value of percent of control at 10^−7 M was from 40% to 60% or the value of IC′50 was from 50 nM to 200 nM.). For the molecule `Cc1nc(N[C@H]2CC[C@@H](NC(=O)c3cccc(Cl)c3)CC2)nc(N(C)C)c1C` [compound 2838, 3-chloro-N-(cis-4-{[4-(dimethylamino)-5,6-dimethylpyrimidin-2-yl]amino}cyclohexyl)benzamide], the class is reported as 1 (Class 1: The value of percent of control at 10^−7 M was less than 40% or the value of IC50 was less than 50 nM.). Consider “N-(3,4-dimethoxyphenyl)-N′-(cis-4-{[4-(dimethylamino)-5,6-dimethylpyrimidin-2-yl]amino}cyclohexyl)urea [compound 2867]”, for which the class was 1 (Class 1: The value of percent of control at 10^−7 M was less than 40% or the value of IC50 was less than 50 nM.).
